The text below walks through data of PMC11827123 (Journal of medicinal chemistry, 2023).

In data set [1] the test system is RBC. As to the kind of experiment: RBC lysis in vitro assay. In kind it is cell-based.
For data set [2], the system named is mouse red blood cells (RBCs). As to the kind of experiment: In vitro hemolysis assay, mouse RBCs. In kind it is cell-based.
A short description of data set [3]: Mouse pharmacokinetics, oral and intravenous dosing. To be noted: mice, PK study with oral and iv dosing.
In data set [4] the test system is human red blood cells (RBCs). As to the kind of experiment: In vitro hemolysis assay, human RBCs. In kind it is cell-based.
A short description of data set [5]: Microsomal. In kind it is in vitro ADME, human. To be noted: result in words.
A short description of data set [6]: FeSSIF solubility. In kind it is physicochemical. To be noted: result in words.
For data set [7], the system named is MOLT4 cells. Briefly: Quantitative MS degradation proteomics in MOLT4 cells. To be noted: 6 h treatment.
For data set [8], the system named is HepG2 cell line. Briefly: HepG2 viability. In kind it is cell-based.
Data set [9] relates to HepG2 cell line. As to the kind of experiment: LipidTOX Red phospholipidosis imaging assay. In kind it is cell-based.
Data set [10] deals with HiBiT-tagged v3 EML4-ALK (WT and clinically relevant mutations). Briefly: EML4-ALK HiBiT degradation assay, general / clinically relevant mutations. To be noted: result in words. For orientation: The HiBiT peptide binds its large partner to form an active luciferase.
In data set [11] the target is HiBiT-tagged v3 EML4-ALK wild-type (WT) (Homo sapiens, UniProt Q9HC35+Q9UM73). As to the kind of experiment: EML4-ALK HiBiT degradation assay, WT. To be noted: result in words.
Data set [12] has as its target HiBiT-tagged v3 EML4-ALK G1202R (Homo sapiens, UniProt Q9HC35+Q9UM73, G1202R). As to the kind of experiment: EML4-ALK HiBiT degradation assay, G1202R. To be noted: Ba/F3, result in words.

SMILES strings stand for the structures.

HiBiT-tagged v3 EML4-ALK G1202R, sequence (Q9UM73 1058-1620 G1202R limits assumed, one chain of several): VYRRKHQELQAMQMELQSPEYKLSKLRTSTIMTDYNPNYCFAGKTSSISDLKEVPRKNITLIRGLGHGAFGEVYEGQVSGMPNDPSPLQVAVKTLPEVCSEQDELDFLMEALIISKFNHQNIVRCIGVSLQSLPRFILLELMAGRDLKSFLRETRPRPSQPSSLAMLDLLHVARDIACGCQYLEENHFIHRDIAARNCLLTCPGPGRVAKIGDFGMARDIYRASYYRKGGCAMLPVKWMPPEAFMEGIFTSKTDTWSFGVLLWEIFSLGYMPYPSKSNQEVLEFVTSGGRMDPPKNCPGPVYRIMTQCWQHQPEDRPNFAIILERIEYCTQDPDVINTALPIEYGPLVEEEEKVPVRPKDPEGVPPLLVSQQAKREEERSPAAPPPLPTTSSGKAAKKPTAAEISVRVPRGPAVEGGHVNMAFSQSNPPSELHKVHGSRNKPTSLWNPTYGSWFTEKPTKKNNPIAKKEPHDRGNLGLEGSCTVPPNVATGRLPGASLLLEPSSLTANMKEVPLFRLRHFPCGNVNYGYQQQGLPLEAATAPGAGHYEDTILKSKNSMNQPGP
HiBiT-tagged v3 EML4-ALK wild-type (WT), sequence (Q9UM73 1058-1620 limits assumed, one chain of several): as the sequence (Q9UM73 1058-1620 G1202R limits assumed, one chain of several) above, with R145G counted along it

As for `COc1cc(CCNCCCCCC#Cc2cccc3c2C(=O)N(C2CCC(=O)NC2=O)C3=O)c(C)cc1Nc1ncc(Cl)c(Nc2ccccc2S(=O)(=O)C(C)C)n1` (centres unmarked) [CPD-198, 4-(7-((4-((5-Chloro-4-((2-(isopropylsulfonyl)-phenyl)amino)pyrimidin-2-yl)amino)-5-methoxy-2-methylphenethyl)amino)hept-1-yn-1-yl)-2-(2,6-dioxopiperidin-3-yl)isoindoline-1,3-dione], the “RBC lysis in vitro” value in data set [1] was “caused RBC lysis”.
For the molecule `COc1cc(CCNCCCCCC#Cc2cccc3c2CN(C2CCC(=O)NC2=O)C3=O)c(C)cc1Nc1ncc(Cl)c(Nc2ccccc2S(=O)(=O)C(C)C)n1` (centres unmarked) [CPD-985, 3-(4-(7-((4-((5-Chloro-4-((2-(isopropylsulfonyl)-phenyl)amino)pyrimidin-2-yl)amino)-5-methoxy-2-methylphenethyl)amino)hept-1-yn-1-yl)-1-oxoisoindolin-2-yl)piperidine-2,6-dione], the in vitro hemolysis entry in data set [2] and in data set [4] was “confirmed” each time. The hemolysis in vivo entry in [3] was “hemolysis was also observed”. In addition, the “metabolic / microsomal stability” value in [5] is given as “slightly improved metabolic stability relative to CPD-198”. Besides, the “solubility in fed state simulated intestinal fluid (FeSSIF)” value in data set [6] is “good solubility”.
As to `COc1cc(C2CCN(CCCCCC#Cc3cccc4c3CN(C3CCC(=O)NC3=O)C4=O)CC2)c(C)cc1Nc1ncc(Cl)c(Nc2ccccc2S(=O)(=O)C(C)C)n1` (centres unmarked) [CPD-1108, 3-(4-(7-(4-(4-((5-Chloro-4-((2-(isopropylsulfonyl)phenyl)amino)pyrimidin-2-yl)amino)-5-methoxy-2-methylphenyl)piperidin-1-yl)hept-1-yn-1-yl)-1-oxoisoindolin-2-yl)piperidine-2,6-dione], in data set [1], the “RBC lysis in vitro” value is recorded as “weak positive”.
With `COc1cc(C2CCN(CCCC#Cc3cccc4c3CN(C3CCC(=O)NC3=O)C4=O)CC2)c(C)cc1Nc1ncc(Cl)c(Nc2ccccc2S(=O)(=O)C(C)C)n1` (centres unmarked) [CPD-1131], the “proteins degraded to any significant extent” value in [7] was “five”. Moreover, the “RBC lysis in vitro” value in data set [1] was “RBC lysis was avoided”. Further, in data set [5], the “metabolic / microsomal stability” value was “good microsomal stability”.
As to `COc1cc(C2CCN(CC3CN(c4ccc5c(c4)C(=O)N(C4CCC(=O)NC4=O)C5=O)C3)CC2)c(C)cc1Nc1ncc(Cl)c(Nc2ccccc2S(=O)(=O)C(C)C)n1` (centres unmarked) [CPD-1224, 5-{3-[(4-{4-[(5-Chloro-4-{[2-(propane-2-sulfonyl)phenyl]amino}pyrimidin-2-yl)amino]-5-methoxy-2-methylphenyl}piperidin-1-yl)methyl]azetidin-1-yl}−2-(2,6-dioxopiperidin-3-yl)-2,3-dihydro-1H-isoindole-1,3-dione], the cytotoxicity result in [8] is “did not possess these effects”. Also, the “RBC lysis in vitro” value in data set [1] is “did not possess RBC lysis”. In addition, the “metabolic / microsomal stability” value in data set [5] is on record as “improved metabolic stability relative to the isoindolinone congener CPD-1793”. In addition, the “phospholipidosis (phospholipid accumulation)” value in [9] was “did not possess these effects”.
For `COc1cc(C2CCN(CC3CN(c4ccc5c(c4)C(=O)N(C4CCC(=O)N(C)C4=O)C5=O)C3)CC2)c(C)cc1Nc1ncc(Cl)c(Nc2ccccc2S(=O)(=O)C(C)C)n1` (centres unmarked) [CPD-1224NC, 5-(3-((4-(4-((5-Chloro-4-((2-(isopropylsulfonyl)-phenyl)amino)pyrimidin-2-yl)amino)-5-methoxy-2-methylphenyl)piperidin-1-yl)methyl)azetidin-1-yl)-2-(1-methyl-2,6-dioxopiperidin-3-yl)isoindoline-1,3-dione], the “EML4-ALK degradation potency / efficacy (general, clinical mutations)” value in [10] is given as “retains weak degradation activity”.
`CCc1cc2c(cc1N1CCN(CC3CN(c4ccc5c(c4)C(=O)N(C4CCC(=O)NC4=O)C5=O)C3)CC1)C(C)(C)c1[nH]c3cc(C#N)ccc3c1C2=O` (centres unmarked) [CPD-1403, 8-(4-((1-(2-(2,6-Dioxopiperidin-3-yl)-1,3-dioxoisoindolin-5-yl)azetidin-3-yl)methyl)piperazin-1-yl)-9-ethyl-6,6-dimethyl-11-oxo-6,11-dihydro-5H-benzo[b]carbazole-3-carbonitrile]: the “metabolic / microsomal stability” value in data set [5] is on record as “high microsomal stability”.
Regarding `Cc1cc(Nc2ncc(Cl)c(Nc3ccccc3S(=O)(=O)C(C)C)n2)c(OC(C)C)cc1C1CCN(CCOCCOCCNC(=O)CNc2cccc3c2C(=O)N(C2CCC(=O)NC2=O)C3=O)CC1` (centres unmarked) [TL13–112], the “shift between cellular ALK occupancy (NanoBRET) and degradation potency, WT” value in data set [11] is recorded as “only a small shift”. In [12], the “degradation activity for G1202R mutation” value is “low degradation activity”.
As for `Cc1cc(Nc2ncc(Cl)c(Nc3ccccc3S(=O)(=O)C(C)C)n2)c(OC(C)C)cc1C1CCNCC1` [ceritinib, reference compound], the cytotoxicity entry in data set [8] is on record as “cytotoxicity”. Besides, the “phospholipidosis (phospholipid accumulation)” value in [9] was “confirmed the phospholipidosis”.
